Test results published in patent US20040038883A1, “Peptide inhibitors of Akt and uses thereof” (priority 2002, published 2004).
No end group written: not given here.

How the values were obtained:
Akt1 = biological target: T1, Akt1 (Homo sapiens, UniProt P31749); assay: in vitro Akt1 kinase assay with biotinylated Bad-derived peptide substrate; type: biochemical; conditions: FIG. 3
T1 construct: made in house; host or cells: baculovirus / insect cells

SGK = assay: kinase selectivity assay, SGK; type: biochemical
Description: Enzymes: Akt1 was expressed and purified using a baculoviral system. PKA was purchased from Panvera. CDC2, […] and PKC gamma were purchased from Calbiochem, and SGK and Src were purchased from Upstate Biotechnology (Charlottesvilee, Va.).
Substrates: All substrates were custom synthesized by Genemed Synthesis, Inc. (San Francisco, Calif.) except the Src substrate, which was purchased from Promega (cat#V6480). The substrates had the general structure of Biotin-Ahx-peptide. The Akt assay used […]. The PKA assay used kemptide LRRASLG. The CDC2 assay used PKTPKKAKKL. The SGK assay used RPRAATF. The PKC delta and gamma used neurogranin ERMRPRKRQGSVRRRV. Phosphotidylserine and dioleyl-sn-glycerol were purchased from Avanti Polar Lipids (Alabaster, Ala.). Strepavidin Flash Plates were purchased from Perkin Elmer Life Sciences (Boston, Mass.).
Turning to the kinase selectivity assays, all the enzymes other than Akt were tested in 25 mM Hepes buffer pH 7.4, 10 mM MgCl2, 0.1 mM Na3VO4, 0.5 mM DTT and 0.075 mg/ml Triton X-100. […] Reactions were transferred to Flash Plates, vortexed and incubated at room temperature for 10 min, then washed 3 times with phosphate buffered saline with 0.05% Tween 20 and counted on a TopCount Packard Instruments gamma counter (Packard Instruments, Boston, Mass.). IC50s were calculated using the Assay Explorer software, sigmoidal curve fit by MDL.

mouse Akt1 = mouse Akt1 (Mus musculus, UniProt P31750); conditions: mouse Akt1, J. Biol. Chem. 275:36108-36115 (2000); cited from earlier work
Chain of mouse Akt1 (P31750 whole entry): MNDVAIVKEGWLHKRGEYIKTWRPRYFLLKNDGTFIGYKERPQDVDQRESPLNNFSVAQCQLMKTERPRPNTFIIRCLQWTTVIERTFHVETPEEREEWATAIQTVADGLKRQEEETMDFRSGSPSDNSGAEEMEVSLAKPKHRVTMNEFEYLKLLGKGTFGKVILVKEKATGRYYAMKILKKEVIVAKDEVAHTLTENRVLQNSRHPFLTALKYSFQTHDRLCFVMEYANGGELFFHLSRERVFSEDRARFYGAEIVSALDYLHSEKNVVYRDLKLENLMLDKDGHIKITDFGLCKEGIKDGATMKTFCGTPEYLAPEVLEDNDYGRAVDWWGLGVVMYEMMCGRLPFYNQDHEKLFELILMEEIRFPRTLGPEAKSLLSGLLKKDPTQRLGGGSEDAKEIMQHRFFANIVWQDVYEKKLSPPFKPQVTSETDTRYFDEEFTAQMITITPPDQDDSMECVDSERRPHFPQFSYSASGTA

Akt = assay: Ki
Protocol: Table printed on a drawing sheet, FIG.8
The patent's description of the figure: FIG. 8 represents the minimal length requirement for the peptide inhibitors. Different lengths of peptide inhibitor 2 were synthesized. For some of them, an acetyl group was added to the amino terminal end to increase the stability for cellular assays. These peptides were tested in the Akt assay described herein.
First copying reader's note: Ki values are for length variants of peptide inhibitor 2 tested in the Akt assay; the unit (μM) stands in the cells.
Where the first naming reader finds the target: description_of_the_figure: These peptides were tested in the Akt assay described herein.

[1] = test system: Akt1-FL (full-length Akt1); assay: IC50 (Akt1-FL*)
Protocol: Table printed on a drawing sheet, FIG.3B
Head of the field: IC50 (Akt1-FL*)
Footnotes: *FL: FULL-LENGTH
The patent's description of the figure: FIG. 3: FIG. 3A illustrates Akt1 inhibition by the five Akt1 peptide inhibitors. FIG. 3B illustrates the IC50 of the five peptide inhibitors.
First copying reader's note: For peptide 5 the sheet prints a percent value at 128μM in place of an IC50.
Where the first naming reader finds the target: head: IC50 (Akt1-FL*)

T1 sequence (P31749 whole entry): as the sequence (P31750 whole entry) above, with N2S, S50A, A100T, R112K, T117E, T389K, N410G, D415H counted along it

5: peptide 2 with threonine at position 15 mutated to Asp (VELDPEFEPRARERDYAFGH; Variant of the wildtype Akt Sequence) [Peptide 5]
relative potency of Akt1 inhibition (in words) (Akt1): least potent inhibitor

CC(C)C[C@H](NC(=O)[C@H](CCC(=O)O)NC(=O)[C@@H](N)C(C)C)C(=O)N[C@@H](CC(=O)O)C(=O)N1CCC[C@H]1C(=O)N[C@@H](CCC(=O)O)C(=O)N[C@@H](Cc1ccccc1)C(=O)N[C@@H](CCC(=O)O)C(=O)N1CCC[C@H]1C(=O)N[C@@H](CCCNC(=N)N)C(=O)N[C@@H](C)C(=O)N[C@@H](CCCNC(=N)N)C(=O)N[C@@H](CCC(=O)O)C(=O)N[C@@H](CCCNC(=N)N)C(=O)N[C@H](C(=O)N[C@@H](Cc1ccc(O)cc1)C(=O)N[C@@H](CO)C(=O)N[C@@H](Cc1ccccc1)C(=O)NCC(=O)N[C@@H](Cc1c[nH]cn1)C(=O)O)[C@@H](C)O [Peptide 1]
relative potency of Akt1 inhibition (in words) (Akt1): most potent inhibitor against Akt1
inhibition on SGK (in words) (SGK): inhibition was observed
Ki (SGK; highest concentration tested 50 μM, 10 μM ATP): 1000 nM

ARKRERTYSFGHHA [AKTide-2T]
Ki (mouse Akt1): 12000 nM

Ac-DPEFEPRARERTYAFGH
Ki (Akt): 260 nM

Ac-ERTYAFGH
Ki (Akt): > 100000 nM

Ac-FEPRARERTYAFGH
Ki (Akt): 1440 nM

Ac-RARERTYAFGH
Ki (Akt): 15900 nM

FEPRARERTYAFGH
Ki (Akt): 1970 nM

VELDPEFEPRARER A Y A F GH [4:]
IC50 [1]: 210 nM

VELDPEFEPRARER T Y A F GH [2:]
IC50 [1]: 280 nM

VELDPEFEPRARER T Y D F GH [3:]
IC50 [1]: 10600 nM

VELDPEFEPRARER T Y S F GH [1:]
IC50 [1]: 490 nM
